As a reminder, the IC50 is the concentration needed to halve the response being measured.

SMILES strings stand for the structures.

Data on 16 compounds can be found in US20100010041A1, “DIFLUORINATED PIPERIDINES FOR TREATMENT OF ALZHEIMER'S DISEASE AND RELATED CONDITIONS” (priority 2006, published 2010).

This test concerns the target T1, γ-secretase (Homo sapiens, UniProt P49768).
T1 construct: Human SH-SY5Y neuroblastoma cells overexpressing the direct γ-secretase substrate SPA4CT; endogenous in cells; host or cells: human SH-SY5Y neuroblastoma cells (stably overexpressing the substrate SPA4CT, induced with sodium butyrate)
Briefly: Cell-Based γ-Secretase Assay (Aβ(40)/Aβ(42) in media of SH-SY5Y cells overexpressing SPA4CT). As to conditions: Human SH-SY5Y neuroblastoma cells overexpressing SPA4CT; values given as ranges; read-out: IC50 values for Aβ(1-42) inhibition. How it is done:
Cell-Based γ-Secretase Assay
Human SH-SY5Y neuroblastoma cells overexpressing the direct γ-secretase substrate SPA4CT were induced with sodium butyrate (10 mM) for 4 hours prior to plating. Cells were plated at 35,000 cells/well/100 μl in 96-well plates in phenol red-free MEM/10% FBS, 50 mM HEPES, 1% Glutamine and incubated for 2 hrs at 37° C., 5% CO2.
Compounds for testing were diluted into Me2SO to give a ten point dose-response curve. Typically 10 μl of these diluted compounds in Me2SO were further diluted into 182 μl dilution buffer (phenol red-free MEM/10% FBS, 50 mM HEPES, 1% Glutamine) and 10 μl of each dilution was added to the cells in 96-well plates (yielding a final Me2SO concentration of 0.5%). Appropriate vehicle and inhibitor controls were used to determine the window of the assay.
After incubation overnight at 37° C., 5% CO2, 10 μl and 50 μl media were transferred into a fresh Costar round-bottom 96-well plate for detection of Aβ(40) and Aβ(42) peptides, respectively. 40 μl Origen buffer (PBS, 2% BSA, 0.2% Tween-20) was added to the Aβ(40) wells followed by the addition of 25 μl the respective antibody premixes to the wells: • Aβ(40) premix: 1 μg/ml ruthenylated G2-10 antibody, 4 μg/ml biotinylated 4G8 antibody diluted in Origen buffer • Aβ(42) premix: 0.5 μg/ml ruthenylated G2-11 antibody, 4 μg/ml biotinylated 4G8 antibody diluted in Origen buffer
(Biotinylated 4G8 Antibody Supplied by Signet Pathology Ltd; G2-10 and G2-11 Antibodies Supplied by Chemicon)
After overnight incubation of the assay plates on a shaker at 4° C., the Origen M8 Analyser (Igen Inc.) was calibrated according to the manufacturer's instructions. 25 μl of streptavidin magnetic bead (Dynal) premix (400 μg/ml streptavidin beads/ml in Origen buffer) was added to the assay plates and incubated on a shaker for 15 minutes. 150 μl Origen buffer was added to each well and the plates were read on the Origen M8 Analyser according to the manufacturer's instructions.
Cell viability was measured in the corresponding cells after removal of the media for the Aβ assays by a colorimetric cell proliferation assay (CellTiter 96™ AQ assay, Promega) utilizing the bioreduction of MTS (Owen's reagent) to formazan according to the manufacturer's instructions. Briefly, 5 μl of 10×MTS/PES was added to the remaining 50 μl of media before returning to the incubator. The optical density was read at 495 nm after ˜4 hours.
LD50 and IC50 values for inhibition of Aβ(40) and Aβ(42) were calculated by nonlinear regression fit analysis using the appropriate software (eg. Excel fit). The total signal and the background were defined by the corresponding Me2SO and inhibitor controls.
Take `CC(C)(C)C[C@@H](CCc1ccc(C(F)(F)F)cc1)N1CCC(F)(F)[C@H](CC(=O)O)[C@H]1c1ccc(C(F)(F)F)cc1` (relative stereo) [Example 14, {1-(3,3-dimethyl-1-{2-[4-(trifluoromethyl)phenyl]ethyl}butyl)-4,4-difluoro-2-[4-(trifluoromethyl)phenyl]piperidin-3-yl}acetic acid]: the IC50 lay within 2000 to 3000 nM.
`CC(C)(C)CCCN1[C@H](c2ccc(C(F)(F)F)cc2)[C@@H](CC(=O)O)C(F)(F)C[C@H]1c1ccc(C(F)(F)F)cc1` (relative stereo) [Example 24, {1-(4,4-dimethylpentyl)-4,4-difluoro-2,6-bis[4-(trifluoromethyl)phenyl]piperidin-3-yl}acetic acid]: the IC50 lay in the range of 1000 to 1500 nM.
Turning to `CC(C)(C)/C=C\[C@H](CC(C)(C)C)N1CCC(F)(F)[C@H](CC(=O)O)[C@H]1c1ccc(C(F)(F)F)cc1` (relative stereo) [Example 12, {1-[(2Z)-1-(2,2-dimethylpropyl)-4,4-dimethylpent-2-en-1-yl]-4,4-difluoro-2-[4-(trifluoromethyl)phenyl]piperidin-3-yl}acetic acid], the 50% inhibitory concentration (IC50) fell in the range of 2000 to 3000 nM.
`CC(C)(C)C#C[C@H](CCC(F)(F)F)N1CCC(F)(F)[C@H](CC(=O)O)[C@H]1c1ccc(C(F)(F)F)cc1` (single isomer, unassigned) [Example 19, {1-[4,4-dimethyl-1-(3,3,3-trifluoropropyl)pent-2-yn-1-yl]-4,4-difluoro-2-[4-(trifluoromethyl)phenyl]piperidin-3-yl}acetic acid]: the IC50 is less than 500 nM.
Consider `CC(C)(C)/C=C\[C@H](CCC(F)(F)F)N1CCC(F)(F)[C@H](CC(=O)O)[C@H]1c1ccc(C(F)(F)F)cc1` (relative stereo) [Example 20, {1-[(2Z)-4,4-dimethyl-1-(3,3,3-trifluoropropyl)pent-2-en-1-yl]-4,4-difluoro-2-[4-(trifluoromethyl)phenyl]piperidin-3-yl}acetic acid], for which the 50% inhibitory concentration (IC50) was less than 500 nM.
In the case of `CC(C)(C)CC[C@H](CCC(F)(F)F)N1CCC(F)(F)[C@H](CC(=O)O)[C@H]1c1ccc(C(F)(F)F)cc1` (single isomer, unassigned) [Example 18, {1-[4,4-dimethyl-1-(3,3,3-trifluoropropyl)pentyl]-4,4-difluoro-2-[4-(trifluoromethyl)phenyl]piperidin-3-yl}acetic acid] it was less than 500 nM; in that of `CC(C)(C)CC[C@H](CCC(F)(F)F)N1CCC(F)(F)[C@H](CC(=O)O)[C@H]1c1ccc(C(F)(F)F)cc1` (single isomer, unassigned) [Example 22, {1-[4,4-dimethyl-1-(3,3,3-trifluoropropyl)pentyl]-4,4-difluoro-2-[4-(trifluoromethyl)phenyl]piperidin-3-yl}acetic acid], 1000 to 1500 nM; in that of `CC(C)(C)C#CCN1[C@H](c2ccc(C(F)(F)F)cc2)[C@@H](CC(=O)O)C(F)(F)C[C@H]1c1ccc(C(F)(F)F)cc1` (relative stereo) [Example 23, {1-(4,4-dimethylpent-2-yn-1-yl)-4,4-difluoro-2,6-bis[4-(trifluoro-methyl)phenyl]piperidin-3-yl}acetic acid], 2000 to 3000 nM.
Turning to `CC(C)(C)CC[C@H](c1ccc(C(F)(F)F)cc1)N1CCC(F)(F)[C@H](CC(=O)O)[C@H]1c1ccc(C(F)(F)F)cc1` (relative stereo) [Example 1, {1-{4,4-dimethyl-1-[4-(trifluoromethyl)phenyl]pentyl}-4,4-difluoro-2-[4-(trifluoromethyl)phenyl]piperidin-3-yl}acetic acid], the concentration for half-maximal inhibition (IC50) was 1000 to 1500 nM.
Regarding `CC(C)CC[C@H](c1ccc(C(F)(F)F)cc1)N1CCC(F)(F)[C@H](CC(=O)O)[C@H]1c1ccc(C(F)(F)F)cc1` (relative stereo) [Example 8, {4,4-difluoro-1-(4-methyl-1-[4-(trifluoromethyl)phenyl]pentyl}-2-[4-(trifluoromethyl)phenyl]piperidin-3-yl}acetic acid], the IC50 lay within 2000 to 3000 nM.
In the case of `CC(C)(C)/C=C\[C@H](CCC(F)(F)F)N1CCC(F)(F)[C@H](CC(=O)O)[C@H]1c1ccc(C(F)(F)F)cc1` [Example 6, {1-[(2Z)-4,4-dimethyl-1-(3,3,3-trifluoropropyl)pent-2-en-1-yl]-4,4-difluoro-2-[4-(trifluoromethyl)phenyl]piperidin-3-yl}acetic acid] it was 1000 to 1500 nM; in that of `CC(C)(C)C#C[C@H](CCCC(C)(C)C)N1CCC(F)(F)[C@H](CC(=O)O)[C@H]1c1ccc(C(F)(F)F)cc1` (relative stereo) [Example 17, {1-[1-(3,3-dimethylbut-1-yn-1-yl)-5,5-dimethylhexyl]-4,4-difluoro-2-[4-(trifluoromethyl)phenyl]piperidin-3-yl}acetic acid], 1000 to 1500 nM; in that of `CC(C)(C)CCC(CCC(C)(C)C)N1CCC(F)(F)[C@H](CC(=O)O)[C@H]1c1ccc(C(F)(F)F)cc1` (relative stereo) [Example 15, {1-[1-(3,3-dimethylbutyl)-4,4-dimethylpentyl]-4,4-difluoro-2-[4-(trifluoromethyl)phenyl]piperidin-3-yl}acetic acid], 1500 to 2000 nM.
For the compound `C=C(C)C#C[C@H](CCC(=C)C)N1CCC(F)(F)[C@H](CC(=O)O)[C@H]1c1ccc(C(F)(F)F)cc1` (relative stereo) [Example 7, {4,4-difluoro-1-[4-methyl-1-(3-methylbut-3-en-1-yl)pent-4-en-2-yn-1-yl]-2-[4-(trifluoromethyl)phenyl]piperidin-3-yl}acetic acid], the 50% inhibitory concentration (IC50) lay within 1500 to 2000 nM.
As for `CC(C)(C)CC[C@H](CC(C)(C)C)N1CCC(F)(F)[C@H](CC(=O)O)[C@H]1c1ccc(C(F)(F)F)cc1` (relative stereo) [Example 11, {1-[1-(2,2-dimethylpropyl)-4,4-dimethylpentyl]-4,4-difluoro-2-[4-(trifluoromethyl)phenyl]-piperidin-3-yl}acetic acid], the 50% inhibitory concentration (IC50) fell in the range of 1500 to 2000 nM.
For `C=C(C)C#C[C@H](CCC(F)(F)F)N1CCC(F)(F)[C@H](CC(=O)O)[C@H]1c1ccc(C(F)(F)F)cc1` (relative stereo) [Example 2, {4,4-difluoro-1-[4-methyl-1-(3,3,3-trifluoropropyl)pent-4-en-2-yn-1-yl]-2-[4-(trifluoromethyl)phenyl]piperidin-3-yl}acetic acid] the value was 1500 to 2000 nM.
